Results on ten compounds are retold here after ChEMBL document CHEMBL4130363, “Synthesis and pharmacological evaluation of benzamide derivatives as potent and selective sigma-1 protein ligands” (Eur J Med Chem, 2017).

pIC50, pKi: −log10 of the molar value. Bounds are passed on as bounds.

In data set [1] the target is Sigma non-opioid intracellular receptor 1 (Homo sapiens, UniProt Q99720). Put plainly: Displacement of [3H](+)-pentazocine from S1R in human Jurkat cell membranes after 2 hrs by liquid scintillation counting.
Sigma non-opioid intracellular receptor 1, sequence (Q99720 whole entry): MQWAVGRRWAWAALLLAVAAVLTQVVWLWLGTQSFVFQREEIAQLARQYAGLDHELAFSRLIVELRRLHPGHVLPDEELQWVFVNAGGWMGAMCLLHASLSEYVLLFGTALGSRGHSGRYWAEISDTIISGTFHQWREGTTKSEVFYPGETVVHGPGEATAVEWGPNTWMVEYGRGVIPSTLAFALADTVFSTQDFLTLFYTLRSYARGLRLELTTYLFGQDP
Data set [2] addresses Sigma intracellular receptor 2 (Homo sapiens, UniProt Q5BJF2). Briefly: Displacement of [3H]-DTG from S2R in human Jurkat cell membranes after 1 hr in presence of (+)-pentazocine by liquid scintillation counting.
Data set [3] concerns SH-SY5Y. Briefly: Cytotoxicity against human SH-SY5Y cells assessed as reduction in cell viability after 72 hrs by MTT assay. It counts as cell-based. (In general: Tetrazolium dyes change colour on reduction, which living cells bring about.)
For data set [4], the system named is S1R (sigma-1 receptor). Put plainly: Selectivity index, ratio of IC50 for human SH-SY5Y cells to Ki for S1R in human Jurkat cell membranes. It counts as toxicity, cell-based.

Sigma intracellular receptor 2, sequence (Q5BJF2 whole entry): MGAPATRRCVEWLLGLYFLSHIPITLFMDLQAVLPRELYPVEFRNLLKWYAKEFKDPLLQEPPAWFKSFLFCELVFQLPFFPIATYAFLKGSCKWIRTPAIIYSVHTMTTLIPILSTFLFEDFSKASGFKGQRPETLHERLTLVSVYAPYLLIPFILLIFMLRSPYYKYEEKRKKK

A word on the pKi: it is the negative decadic logarithm of the Ki, by convention in mol/L. What is called pIC50 is the negative decadic logarithm of the IC50, by convention in mol/L. Turning to `CN(CCNC(=O)c1cccc(Cl)c1Cl)Cc1ccccc1`, the pKi in data set [1] was 8.19; in data set [2], 6.96. Further, in data set [3], the pIC50 was below 4.00. For the same compound, the selectivity ratio in data set [4] is above 15400.
`CN1CCN(CCNC(=O)c2ccc(Cl)cc2)CC1`: the pKi in data set [1] was below 7.00; in data set [2], below 6.70. For the same compound, in data set [3], the pIC50 is below 4.00.
Regarding `O=C(NCCCN1CCOCC1)c1ccc(Cl)cc1` [EPROBEMIDE], the pKi in data set [1] was below 7.00; in data set [2], below 6.70. For the same compound, the pIC50 in data set [3] was below 4.00.
For the compound `CN(CCCNC(=O)c1ccc(Br)cc1F)Cc1ccccc1`, in data set [2], the pKi was 6.70. For the same compound, in data set [3], the pIC50 was below 4.00. In data set [4], the selectivity ratio was above 34500.
Take `O=C(NCCCN1Cc2ccccc2C1)c1ccc(Cl)cc1`: the pKi in data set [1] is 7.72; in data set [2] it was 6.46. Moreover, in data set [3], the pIC50 is below 4.00. The selectivity ratio in data set [4] is above 5260.
Consider `CN(CCCNC(=O)c1cc(Cl)cc(Cl)c1)Cc1ccccc1`, for which, in data set [3], the pIC50 was 4.22. The selectivity ratio in data set [4] turned out to be 2610.
Taken in the same sequence, the figures for `CN(CCCNC(=O)c1cccc(Cl)c1)Cc1ccccc1` were below 4.00 and above 10000.
The matching figures for `CN(CCCNC(=O)c1ccc(F)cc1)Cc1ccccc1`: below 4.00 and above 5000.
For the compound `O=C(NCCN1CCCC1)c1ccc(Cl)cc1`, the pKi in data set [1] is below 7.00; in data set [2], below 6.70. For the same compound, in data set [3], the pIC50 is below 4.00.
The matching figures for `O=C(NCCN1CCOCC1)c1ccc(Cl)cc1` [MOCLOBEMIDE]: below 7.00, below 6.70 and below 4.00.
